# Laboratory results reported in ChEMBL document CHEMBL5247595, “Synthesis, antitumor, and apoptosis-inducing activities of novel 5-arylidenethiazolidine-2,4-dione derivatives: Histone deacetylases inhibitory activity and molecular docking study” (Eur J Med Chem, 2022).
# pIC50: −log10 of the molar value.
# How the values were obtained:
# HepG2 [1] = test: cells; format: functional, cell-based; conditions: Homo sapiens, HepG2, 48 h
# Description: Cytotoxicity against human HepG2 cells assessed as inhibition of cell growth measured after 48 hrs by MTT assay
# HCT-116 [2] = test: cells; format: functional, cell-based; conditions: Homo sapiens, HCT-116, 48 h
# Description: Cytotoxicity against human HCT-116 cells assessed as inhibition of cell growth measured after 48 hrs by MTT assay
# MCF7 [3] = test: cells; format: functional, cell-based; conditions: Homo sapiens, MCF7, 48 h
# Description: Cytotoxicity against human MCF7 cells assessed as inhibition of cell growth measured after 48 hrs by MTT assay
# PC-3 = test: Cytotoxicity against human PC-3 cells assessed as inhibition of cell growth measured after 48 hrs by MTT assay; format: functional, cell-based; conditions: PC-3, 48 h
# HeLa = test: cells; format: functional, cell-based; conditions: Homo sapiens, 48 h
# Description: Cytotoxicity against human HeLa cells assessed as inhibition of cell growth measured after 48 hrs by MTT assay
# MCF7 [4] = test: Induction of apoptosis in human MCF7 cells assessed as fold increase in BAX expression by ELISA assay; format: functional
# HCT-116 [5] = test: Induction of apoptosis in human HCT-116 cells assessed as fold increase in BAX expression by ELISA assay; format: functional
# HepG2 [6] = test: Induction of apoptosis in human HepG2 cells assessed as fold increase in BAX expression by ELISA assay; format: functional
# MCF7 [7] = test: Induction of apoptosis in human MCF7 cells assessed as fold increase in caspases-3 expression by ELISA assay; format: functional
# HCT-116 [8] = test: Induction of apoptosis in human HCT-116 cells assessed as fold increase in caspases-3 expression by ELISA assay; format: functional
# HepG2 [9] = test: Induction of apoptosis in human HepG2 cells assessed as fold increase in caspases-3 expression by ELISA assay; format: functional
# MCF7 [10] = test: Induction of apoptosis in human MCF7 cells assessed as fold increase in caspases-7 expression by ELISA assay; format: functional
# HCT-116 [11] = test: Induction of apoptosis in human HCT-116 cells assessed as fold increase in caspases-7 expression by ELISA assay; format: functional
# HepG2 [12] = test: Induction of apoptosis in human HepG2 cells assessed as fold increase in caspases-7 expression by ELISA assay; format: functional
# HCT-116 [13] = test: Induction of cell cycle arrest in human HCT-116 cells assessed as accumulation at sub-G1 phase by PI-staining based flow cytometry (reference value: 12%); format: functional
# HepG2 [14] = test: Induction of cell cycle arrest in human HepG2 cells assessed as accumulation at G0/G1 phase by PI-staining based flow cytometry (reference value: 35.2%); format: functional
# MCF7 [15] = test: Induction of cell cycle arrest in human MCF7 cells assessed as accumulation at G0/G1 phase by PI-staining based flow cytometry (reference value: 40.8%); format: functional
# HCT-116 [16] = test: Induction of cell cycle arrest in human HCT-116 cells assessed as accumulation at G0/G1 phase by PI-staining based flow cytometry (reference value: 47%); format: functional
# HepG2 [17] = test: Induction of cell cycle arrest in human HepG2 cells assessed as accumulation at S phase by PI-staining based flow cytometry (reference value: 5.8%); format: functional
# MCF7 [18] = test: Induction of cell cycle arrest in human MCF7 cells assessed as accumulation at S phase by PI-staining based flow cytometry (reference value: 6.3%); format: functional
# HCT-116 [19] = test: Induction of cell cycle arrest in human HCT-116 cells assessed as accumulation at S phase by PI-staining based flow cytometry (reference value: 7.1%); format: functional
# HepG2 [20] = test: Induction of cell cycle arrest in human HepG2 cells assessed as accumulation at G2/M phase by PI-staining based flow cytometry (reference value: 41.5%); format: functional
# MCF7 [21] = test: Induction of cell cycle arrest in human MCF7 cells assessed as accumulation at G2/M phase by PI-staining based flow cytometry (reference value: 35.3%); format: functional
# HCT-116 [22] = test: Induction of cell cycle arrest in human HCT-116 cells assessed as accumulation at G2/M phase by PI-staining based flow cytometry (reference value: 29.2%); format: functional
# HepG2 [23] = test: Induction of cell cycle arrest in human HepG2 cells assessed as accumulation at sub-G1 phase by PI-staining based flow cytometry (reference value: 12.6%); format: functional
# MCF7 [24] = test: Induction of cell cycle arrest in human MCF7 cells assessed as accumulation at sub-G1 phase by PI-staining based flow cytometry (reference value: 13.2%); format: functional
# Histone deacetylase 1 = Histone deacetylase 1 (Homo sapiens, UniProt Q13547); test: Inhibition of HDAC1 (unknown origin) by ELISA assay
# Histone deacetylase 2 = Histone deacetylase 2 (Homo sapiens, UniProt Q92769); test: Inhibition of HDAC2 (unknown origin) by ELISA assay
# Histone deacetylase 8 = target: T1, Histone deacetylase 8 (Homo sapiens, UniProt Q9BY41); test: Inhibition of HDAC8 (unknown origin) by ELISA assay
# T1 sequence (Q9BY41 whole entry): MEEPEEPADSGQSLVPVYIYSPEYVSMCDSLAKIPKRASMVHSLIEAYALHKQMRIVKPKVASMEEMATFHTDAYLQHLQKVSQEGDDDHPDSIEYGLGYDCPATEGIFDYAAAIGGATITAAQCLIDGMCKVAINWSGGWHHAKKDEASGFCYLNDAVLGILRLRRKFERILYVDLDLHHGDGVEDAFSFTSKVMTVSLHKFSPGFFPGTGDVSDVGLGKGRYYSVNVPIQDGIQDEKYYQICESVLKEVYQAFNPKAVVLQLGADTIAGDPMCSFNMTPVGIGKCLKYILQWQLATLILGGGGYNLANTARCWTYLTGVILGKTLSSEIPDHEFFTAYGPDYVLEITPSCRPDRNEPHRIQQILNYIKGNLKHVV
# [25] = target: T2, Protein deacetylase HDAC6 (Homo sapiens, UniProt Q9UBN7); test: Inhibition of HDAC6 (unknown origin) by ELISA assay
# T2 sequence (Q9UBN7 whole entry): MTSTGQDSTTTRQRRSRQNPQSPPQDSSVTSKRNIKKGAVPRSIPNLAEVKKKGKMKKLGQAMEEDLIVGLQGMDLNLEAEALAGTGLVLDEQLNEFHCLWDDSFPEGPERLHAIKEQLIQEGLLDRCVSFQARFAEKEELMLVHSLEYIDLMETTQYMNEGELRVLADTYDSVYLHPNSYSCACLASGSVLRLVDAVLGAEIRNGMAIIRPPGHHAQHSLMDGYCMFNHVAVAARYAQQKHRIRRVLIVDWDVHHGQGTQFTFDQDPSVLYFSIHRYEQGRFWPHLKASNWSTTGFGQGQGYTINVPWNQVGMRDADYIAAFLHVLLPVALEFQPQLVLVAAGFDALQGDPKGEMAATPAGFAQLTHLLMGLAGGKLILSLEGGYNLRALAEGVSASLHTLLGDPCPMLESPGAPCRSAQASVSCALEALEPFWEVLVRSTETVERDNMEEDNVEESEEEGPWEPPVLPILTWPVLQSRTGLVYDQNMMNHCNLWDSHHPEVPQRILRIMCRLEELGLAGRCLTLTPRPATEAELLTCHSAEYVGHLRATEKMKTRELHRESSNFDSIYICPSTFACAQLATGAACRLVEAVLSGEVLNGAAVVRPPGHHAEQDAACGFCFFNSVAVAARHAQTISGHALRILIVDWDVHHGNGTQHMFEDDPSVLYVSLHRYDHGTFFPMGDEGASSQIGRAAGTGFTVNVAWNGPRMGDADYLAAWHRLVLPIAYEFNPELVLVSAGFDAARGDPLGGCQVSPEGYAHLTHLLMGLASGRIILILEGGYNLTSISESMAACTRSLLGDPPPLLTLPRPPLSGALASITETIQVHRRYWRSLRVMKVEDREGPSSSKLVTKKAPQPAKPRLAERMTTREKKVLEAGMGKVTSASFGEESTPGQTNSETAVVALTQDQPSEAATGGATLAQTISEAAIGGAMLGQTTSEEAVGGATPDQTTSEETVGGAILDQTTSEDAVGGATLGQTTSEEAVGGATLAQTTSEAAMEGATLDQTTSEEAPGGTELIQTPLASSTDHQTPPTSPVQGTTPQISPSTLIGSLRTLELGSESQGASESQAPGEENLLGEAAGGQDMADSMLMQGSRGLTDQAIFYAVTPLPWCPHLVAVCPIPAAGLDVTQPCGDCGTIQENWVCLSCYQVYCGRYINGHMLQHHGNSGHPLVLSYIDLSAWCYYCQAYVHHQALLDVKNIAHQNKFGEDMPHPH
# in vitro = conditions: human, WI-38 cells
# Description: Cytotoxicity against human WI-38 cells assessed as inhibition of cell growth measured after 48 hrs by MTT assay
# Histone deacetylase 1, sequence (Q13547 whole entry): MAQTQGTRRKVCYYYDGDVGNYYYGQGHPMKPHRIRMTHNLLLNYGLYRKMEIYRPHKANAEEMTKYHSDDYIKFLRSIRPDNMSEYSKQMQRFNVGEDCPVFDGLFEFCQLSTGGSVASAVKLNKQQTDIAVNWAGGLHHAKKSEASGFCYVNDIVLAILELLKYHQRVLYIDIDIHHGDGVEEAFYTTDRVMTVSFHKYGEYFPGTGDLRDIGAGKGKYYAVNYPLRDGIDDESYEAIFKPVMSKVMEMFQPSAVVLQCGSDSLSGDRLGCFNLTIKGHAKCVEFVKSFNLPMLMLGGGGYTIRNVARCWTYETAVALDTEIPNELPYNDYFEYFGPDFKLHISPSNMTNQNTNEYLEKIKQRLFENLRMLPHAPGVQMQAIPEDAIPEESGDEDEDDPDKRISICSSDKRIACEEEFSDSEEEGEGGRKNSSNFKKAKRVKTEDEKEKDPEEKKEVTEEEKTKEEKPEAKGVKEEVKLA
# Histone deacetylase 2, sequence (Q92769 whole entry): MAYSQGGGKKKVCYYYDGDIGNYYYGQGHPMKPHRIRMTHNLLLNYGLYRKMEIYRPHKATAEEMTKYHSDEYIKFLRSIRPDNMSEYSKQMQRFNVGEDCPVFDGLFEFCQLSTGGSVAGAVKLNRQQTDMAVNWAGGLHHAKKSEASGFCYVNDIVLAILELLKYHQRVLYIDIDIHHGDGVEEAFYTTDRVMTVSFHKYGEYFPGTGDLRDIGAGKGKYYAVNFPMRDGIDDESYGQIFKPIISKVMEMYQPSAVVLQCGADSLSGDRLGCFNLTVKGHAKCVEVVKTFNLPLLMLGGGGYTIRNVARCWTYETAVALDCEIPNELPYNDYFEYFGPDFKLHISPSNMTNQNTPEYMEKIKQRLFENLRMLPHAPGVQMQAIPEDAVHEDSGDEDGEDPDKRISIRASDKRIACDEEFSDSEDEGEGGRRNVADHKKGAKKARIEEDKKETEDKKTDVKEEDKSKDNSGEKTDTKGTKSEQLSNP
compound,measurement,setting,value
COc1ccc(/C=C2\SC(=O)N(CCNC(=O)Nc3c(C)n(C)n(-c4ccccc4)c3=O)C2=O)cc1,pIC50,HepG2 [1],5.08
same,pIC50,HCT-116 [2],5.50
same,pIC50,MCF7 [3],5.29
same,pIC50,PC-3,4.86
same,pIC50,HeLa,5.21
same,fold change (FC),MCF7 [4],7.013
same,fold change (FC),HCT-116 [5],4.9
same,fold change (FC),HepG2 [6],13.13
same,fold change (FC),MCF7 [7],5.2
same,fold change (FC),HCT-116 [8],3.9
same,fold change (FC),HepG2 [9],5.2
same,fold change (FC),MCF7 [10],6.6
same,fold change (FC),HCT-116 [11],3.7
same,fold change (FC),HepG2 [12],9.1
same,Activity,HCT-116 [13],39.5%
same,Activity,HepG2 [14],50.6%
same,Activity,MCF7 [15],60.6%
same,Activity,HCT-116 [16],55.2%
same,Activity,HepG2 [17],1.6%
same,Activity,MCF7 [18],4.8%
same,Activity,HCT-116 [19],1.6%
same,Activity,HepG2 [20],0%
same,Activity,MCF7 [21],0.2%
same,Activity,HCT-116 [22],0%
same,Activity,HepG2 [23],43.4%
same,Activity,MCF7 [24],31.7%
same,pIC50,Histone deacetylase 1,6.55
same,pIC50,Histone deacetylase 2,6.08
same,pIC50,Histone deacetylase 8,6.29
same,pIC50,[25],6.59
same,IC50 at 48 h,in vitro,34.5 µM
Cc1c(NC(=O)NCCN2C(=O)S/C(=C\c3ccc(Cl)cc3)C2=O)c(=O)n(-c2ccccc2)n1C,pIC50,HepG2 [1],4.41
same,pIC50,HCT-116 [2],4.44
same,pIC50,MCF7 [3],4.33
same,pIC50,PC-3,4.40
same,pIC50,HeLa,4.53
same,IC50 at 48 h,in vitro,27.5 µM
Cc1c(NC(=O)NCCN2C(=O)S/C(=C\c3ccc(Br)cc3)C2=O)c(=O)n(-c2ccccc2)n1C,pIC50,HepG2 [1],4.28
same,pIC50,HCT-116 [2],4.11
same,pIC50,MCF7 [3],4.24
same,pIC50,PC-3,< 4.00
same,pIC50,HeLa,4.14
same,IC50 at 48 h,in vitro,> 100 µM
Cc1c(NC(=O)CN2C(=O)S/C(=C\c3ccc([N+](=O)[O-])cc3)C2=O)c(=O)n(-c2ccccc2)n1C,pIC50,HepG2 [1],4.07
same,pIC50,HCT-116 [2],4.04
same,pIC50,MCF7 [3],4.08
same,pIC50,PC-3,< 4.00
same,pIC50,HeLa,4.11
same,IC50 at 48 h,in vitro,43.8 µM
COc1ccc(/C=C2\SC(=O)N(CC(=O)Nc3c(C)n(C)n(-c4ccccc4)c3=O)C2=O)cc1,pIC50,HepG2 [1],4.16
same,pIC50,HCT-116 [2],4.15
same,pIC50,MCF7 [3],4.12
same,pIC50,PC-3,4.03
same,pIC50,HeLa,4.19
same,IC50 at 48 h,in vitro,52.9 µM
Cc1ccc(/C=C2\SC(=O)N(CCNC(=O)Nc3c(C)n(C)n(-c4ccccc4)c3=O)C2=O)cc1,pIC50,HepG2 [1],4.59
same,pIC50,HCT-116 [2],4.49
same,pIC50,MCF7 [3],4.43
same,pIC50,PC-3,4.23
same,pIC50,HeLa,4.65
same,IC50 at 48 h,in vitro,48.1 µM
COc1cc(/C=C2\SC(=O)N(CCNC(=O)Nc3c(C)n(C)n(-c4ccccc4)c3=O)C2=O)cc(OC)c1OC,pIC50,HepG2 [1],4.97
same,pIC50,HCT-116 [2],4.90
same,pIC50,MCF7 [3],5.12
same,pIC50,PC-3,4.45
same,pIC50,HeLa,4.80
same,pIC50,Histone deacetylase 1,6.46
same,pIC50,Histone deacetylase 2,5.76
same,pIC50,Histone deacetylase 8,6.46
same,pIC50,[25],6.32
same,IC50 at 48 h,in vitro,51.5 µM
Cc1ccc(/C=C2\SC(=O)N(CC(=O)Nc3c(C)n(C)n(-c4ccccc4)c3=O)C2=O)cc1,pIC50,HepG2 [1],4.24
same,pIC50,HCT-116 [2],4.32
same,pIC50,MCF7 [3],4.18
same,pIC50,PC-3,4.34
same,pIC50,HeLa,4.28
same,IC50 at 48 h,in vitro,83.7 µM
Cc1c(NC(=O)NCCN2C(=O)S/C(=C\c3ccc([N+](=O)[O-])cc3)C2=O)c(=O)n(-c2ccccc2)n1C,pIC50,HepG2 [1],4.85
same,pIC50,HCT-116 [2],4.35
same,pIC50,MCF7 [3],4.73
same,pIC50,PC-3,4.16
same,pIC50,HeLa,4.42
same,pIC50,Histone deacetylase 1,6.80
same,pIC50,Histone deacetylase 2,6.28
same,pIC50,Histone deacetylase 8,6.61
same,pIC50,[25],6.84
same,IC50 at 48 h,in vitro,76.4 µM
Cc1c(NC(=O)CN2C(=O)S/C(=C\c3ccc(Cl)cc3)C2=O)c(=O)n(-c2ccccc2)n1C,pIC50,HepG2 [1],4.50
same,pIC50,HCT-116 [2],4.64
same,pIC50,MCF7 [3],4.37
same,pIC50,PC-3,4.54
same,pIC50,HeLa,4.70
same,IC50 at 48 h,in vitro,54.4 µM
Cc1c(NC(=O)CN2C(=O)S/C(=C\c3ccc(Br)cc3)C2=O)c(=O)n(-c2ccccc2)n1C,pIC50,HepG2 [1],4.72
same,pIC50,HCT-116 [2],5.11
same,pIC50,MCF7 [3],4.62
same,pIC50,PC-3,4.77
same,pIC50,HeLa,5.03
same,pIC50,Histone deacetylase 1,6.34
same,pIC50,Histone deacetylase 2,5.41
same,pIC50,Histone deacetylase 8,5.96
same,pIC50,[25],5.79
same,IC50 at 48 h,in vitro,66.7 µM
O=C(CCCCCCC(=O)Nc1ccccc1)NO [VORINOSTAT],pIC50,PC-3,5.44
